# Substitutions are numbered along the chain they refer to. The source made the active and inactive calls. The calls are words filed in the database; no cut-off is given here.
# What was measured:
# [1] = Unbound fraction in human plasma; format: ADME, cell-free
# [2] = molecular target: T1, 5-hydroxytryptamine receptor 3A (Homo sapiens, UniProt P46098); assay: Antagonist activity at human 5HT3A expressed in HEK293 cells incubated for 1 hr by FLIPR assay; format: cell-based
# T1 sequence (P46098 whole entry): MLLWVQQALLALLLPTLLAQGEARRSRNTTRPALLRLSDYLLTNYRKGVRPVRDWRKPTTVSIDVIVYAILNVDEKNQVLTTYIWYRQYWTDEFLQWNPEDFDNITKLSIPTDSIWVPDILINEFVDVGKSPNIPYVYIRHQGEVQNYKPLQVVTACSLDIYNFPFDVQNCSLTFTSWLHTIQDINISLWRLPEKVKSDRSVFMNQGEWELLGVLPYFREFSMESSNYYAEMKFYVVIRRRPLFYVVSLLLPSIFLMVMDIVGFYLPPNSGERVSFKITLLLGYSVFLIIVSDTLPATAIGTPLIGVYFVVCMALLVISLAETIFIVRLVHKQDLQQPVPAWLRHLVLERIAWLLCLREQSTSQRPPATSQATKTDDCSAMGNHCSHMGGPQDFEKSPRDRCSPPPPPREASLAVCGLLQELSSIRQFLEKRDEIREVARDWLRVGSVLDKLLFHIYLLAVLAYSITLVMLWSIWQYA
# [3] = molecular target: T2, Ceramide glucosyltransferase (Mus musculus) (UniProt O88693); assay: In vivo inhibition of GCS in C57 mouse assessed as reduction in brain GlcCer d18:1/18:0 concentration at 30 to 100 mg/kg, po measured after 8 hrs by LC-MS/MS method; format: functional, organism-based; settings: dose 30-100 mg/kg
# T2 sequence (whole entry): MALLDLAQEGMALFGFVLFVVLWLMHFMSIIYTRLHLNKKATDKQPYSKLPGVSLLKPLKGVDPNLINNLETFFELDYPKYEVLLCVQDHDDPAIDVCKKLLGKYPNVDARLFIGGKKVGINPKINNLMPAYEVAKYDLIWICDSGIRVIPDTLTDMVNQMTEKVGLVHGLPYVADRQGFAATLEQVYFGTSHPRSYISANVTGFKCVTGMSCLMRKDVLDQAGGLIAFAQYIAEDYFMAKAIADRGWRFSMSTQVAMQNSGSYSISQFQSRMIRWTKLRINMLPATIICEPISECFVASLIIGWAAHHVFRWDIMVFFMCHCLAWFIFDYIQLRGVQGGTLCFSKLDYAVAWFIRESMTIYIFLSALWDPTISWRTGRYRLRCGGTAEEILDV
# [4] = Bioavailability in dog; format: ADME, organism-based, Canis lupus familiaris; settings: in vivo
# [5] = molecular target: T2, Ceramide glucosyltransferase (Mus musculus); assay: (§1) In vivo inhibition of GCS in C57 mouse assessed as reduction in brain GlcCer d18:1/18:0 concentration measured after 8 hrs by LC-MS/MS method; format: functional
# [6] = molecular target: T3, Ceramide glucosyltransferase (Mus musculus, UniProt O88693); assay: as §1; format: functional
# T3 sequence (O88693 whole entry): T2 sequence (whole entry)
# [7] = molecular target: T4, Ceramide glucosyltransferase (Homo sapiens, UniProt Q16739); assay: Inhibition of GCS in human fibroblast; format: cell-based
# T4 sequence (Q16739 whole entry): T2 sequence (whole entry) with Q8L, L13V, V20L, S29A, A131G, S196Y, S251A
# [8] = molecular target: T5, Nuclear receptor subfamily 1 group I member 2 (Homo sapiens, UniProt O75469); assay: Activation of PXR (unknown origin)
# T5 sequence (O75469 whole entry): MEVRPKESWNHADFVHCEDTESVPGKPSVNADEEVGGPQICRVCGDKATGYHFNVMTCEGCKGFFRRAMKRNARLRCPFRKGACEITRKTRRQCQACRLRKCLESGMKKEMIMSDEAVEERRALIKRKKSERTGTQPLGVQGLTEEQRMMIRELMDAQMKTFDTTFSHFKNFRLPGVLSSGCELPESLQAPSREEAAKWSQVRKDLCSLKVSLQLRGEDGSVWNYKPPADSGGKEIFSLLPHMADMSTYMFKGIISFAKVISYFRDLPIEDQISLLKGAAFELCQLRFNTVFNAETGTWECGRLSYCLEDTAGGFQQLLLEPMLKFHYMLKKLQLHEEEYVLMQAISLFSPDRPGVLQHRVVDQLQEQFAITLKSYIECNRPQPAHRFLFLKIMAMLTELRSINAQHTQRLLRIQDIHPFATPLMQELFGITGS
# [9] = molecular target: Neuronal acetylcholine receptor subunit alpha-3 (Homo sapiens, UniProt P30926+P32297); assay: Inhibition of human alpha3beta4 nAChR
# Neuron = assay: Protection against PFFs induced lysosomal impairment in human iPSC derived neurons assessed as increase in lysosomal hydrolysis pretreated for 1 day followed by PFFs stimulation and measured after 14 days by immunocytochemistry analysis; format: functional, cell-based; settings: time 15.0 day
# [10] = molecular target: T4, Ceramide glucosyltransferase; assay: (§2) Inhibition of GCS in human iPSC derived neurons assessed as reduction in […] GlcCer levels; format: cell-based, Neuron
# [11] = molecular target: T6, Ceramide glucosyltransferase (Homo sapiens) (UniProt Q16739); assay: as §2; format: cell-based; settings: Neuron
# T6 sequence (whole entry): T2 sequence (whole entry) with Q8L, L13V, V20L, S29A, A131G, S196Y, S251A
# [12] = Protection against PFFs induced alpha-synuclein aggregation in human iPSC derived neurons assessed as reduction in phosphorylated S129 alpha-synuclein level pretreated for 1 day followed by PFFs stimulation and measured after 14 days by immunocytochemistry analysis; format: functional, cell-based; settings: Neuron
# [13] = Protection against PFFs induced alpha-synuclein aggregation in human iPSC derived neurons assessed as reduction in phosphorylated S129 alpha-synuclein level at 1000 nM pretreated for 1 day followed by PFFs stimulation and measured after 14 days by immunocytochemistry analysis; format: functional, Neuron; design: scale not given: the % may be the effect or the level left; settings: time 15 day
# Chain of Neuronal acetylcholine receptor subunit alpha-3 (P32297 whole entry, one chain of several): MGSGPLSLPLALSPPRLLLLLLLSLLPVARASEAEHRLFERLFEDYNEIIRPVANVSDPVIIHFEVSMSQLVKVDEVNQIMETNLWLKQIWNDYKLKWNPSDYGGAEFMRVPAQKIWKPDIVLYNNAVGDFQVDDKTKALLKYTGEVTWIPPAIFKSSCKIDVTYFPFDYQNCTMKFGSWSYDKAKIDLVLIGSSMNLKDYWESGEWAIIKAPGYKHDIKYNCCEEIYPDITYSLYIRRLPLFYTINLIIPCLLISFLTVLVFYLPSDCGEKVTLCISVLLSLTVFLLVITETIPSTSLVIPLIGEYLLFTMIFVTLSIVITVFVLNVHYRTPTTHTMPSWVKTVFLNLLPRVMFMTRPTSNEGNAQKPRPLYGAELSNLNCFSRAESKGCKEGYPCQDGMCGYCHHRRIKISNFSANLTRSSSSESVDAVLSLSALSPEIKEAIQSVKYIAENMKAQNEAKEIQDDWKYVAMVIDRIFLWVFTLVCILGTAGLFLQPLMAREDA
SMILES,fraction unbound [1],IC50 [2] [µM],Activity [3],bioavailability [4] [%],Activity [5],fEC50 [5] [nM],EC50 [6] [µM],IC50 [7] [µM],EC50 [8] [µM],IC50 [9] [µM],Activity (Neuron),IC50 [10] [µM],inhibition [11],IC50 [12] [µM],Activity [13] [%]
O=C(N1CCN2CCC1CC2)n1nc(-c2ccc(F)cc2)c2c1COCC2,0.03,0.224,Active,21,Dose-Dependent Effect,64,0.32,0.034,> 30,2.2,,,,,
Cl.O=C(N1CCN2CCC1CC2)n1nc(-n2cc(C(F)(F)F)cn2)c2c1COCC2,0.03,1.97,,48,,,,0.032,> 30,2.2,Dose-Dependent Effect,0.0017,Dose-Dependent Effect,0.017,20

# — ChEMBL document CHEMBL5223177, “Pyrazole Ureas as Low Dose, CNS Penetrant Glucosylceramide Synthase Inhibitors for the Treatment of Parkinson's Disease” (ACS Med Chem Lett, 2023)
